Reference: patent publication US5527810A, “Decahydroisoquinoline compounds as excitatory amino acid receptor antagonists” (Eli Lilly and Company, priority 1994, dated 1996)

What was measured:
[1] = system: focal cerebral ischemia; conditions: cited from earlier work
[2] = system: focal cerebral ischemia; conditions: cited from earlier work; remark: listed apart in the source
[3] = system: warm water tail withdrawal; conditions: rhesus monkeys; cited from earlier work
[4] = system: global and focal ischemic damage; conditions: in vivo; cited from earlier work
[5] = system: Huntington's Disease; conditions: in vivo; cited from earlier work
[6] = system: sound induced seizures; conditions: DBA/2 mice; cited from earlier work
[7] = system: formalin model; conditions: cited from earlier work
[8] = target: NMDA receptor; assay: NMDA receptor radioligand binding, displacement of [3H]CGS19755 (rat forebrain synaptosomal membranes)
Protocol: (§1) The formula I compounds were tested for their ability to inhibit NMDA, AMPA, and kainic acid receptor binding to rat membranes in a radioligand binding assay using [^3 H]CGS19755, [^3 H]AMPA, and [^3 H]KA. For all radioligand binding assays, male Sprague-Dawley rats were used. Displacement of the specific binding [^3 H]CGS19755 (10 nM) to Triton-X-treated synaptosomal membranes of rat forebrain was used to determine NMDA receptor affinity. Non-specific binding was determined using 10 μM L-glutamate. Samples were incubated in an ice-bath for 30 minutes, and bound ligand was separated from the free ligand by rapid filtration through WHATMAN GF/B glass fiber filters. Murphy et al, British J. Pharmacol., 95, 932-938 (1988). Kainate binding was performed using washed synaptosomal membranes from the rat forebrain as described by Simon et al. Simon et al, J. Neurochem., 26, 141-147 (1976). Tritiated kainate (5 nM) was added to 50 mM Tris-HCl buffer (pH 7.4 at 4° C.) containing 200-300 μg/ml of tissue protein. Samples were incubated for 30 minutes in an ice-bath, then rapidly filtered using a Brandel cell harvester and WHATS GF/C filters. Filters were washed twice with 3 ml of cold buffer. Non-specific binding was determined using 100 μM non-labeled kainate. The binding of [^3 H]AMPA (5 nM) was conducted with crude membranes of rat forebrain in the presence of 100 mM KSCN as described by Nielson et al. Nielson et al, Eur. J. Med. Chem. Chem. Ther., 21, 433-437 (1986). Non-specific binding was determined with 10 μM non-labeled AHPA. The concentration of the formula I compound that inhibited 50% binding (IC50, mean ± standard error, n=3) as calculated by linear regression of displacement data transformed to the Hill equation as described by Bennett. Bennett, Neurotransmitter Receptor Binding, 57-90 (1978).

[9] = target: AMPA receptor; assay: AMPA receptor radioligand binding, displacement of [3H]AMPA (crude membranes of rat forebrain)
Protocol: as §1

[10] = target: kainic acid receptor; assay: Kainate receptor radioligand binding, displacement of [3H]KA (washed synaptosomal membranes from rat forebrain); conditions: [3H]kainate 5 nM, pH 7.4; mean ± standard error (n=3); 21.0 of compound 2 is a single experiment (footnote d)
Protocol: as §1, with “The binding of [^3 H]AMPA (5 nM) was conducted with crude membranes of rat forebrain in the presence of 100 mM KSCN as described by Nielson et al. Nielson et al, Eur. J. Med. Chem. Chem. Ther., 21, 433-437 (1986).” left out, “The concentration of the formula I compound that inhibited 50% binding (IC50, mean ± standard error, n=3) as calculated by linear regression of displacement data transformed to the Hill equation as described by Bennett. Bennett, Neurotransmitter Receptor Binding, 57-90 (1978).” left out

[11] = system: NMDA receptor; assay: Antagonism of cortical wedge depolarization induced by NMDA; type: cell-based, rat; conditions: for IC50: NMDA 40 μM, mean ± standard error (n=3)
Protocol: (§2) The depolarization of rat cortical wedges was used to test the selectivity and potency of the formula I compounds as AMPA and NTMDA antagonists using a technique similar to that described by Harrison and Simmonds. Harrison and Simmonds, Bri. J. Pharmacol., 84, 381-391 (1984). Generally, 4-ml aliquots of NMDA (40 μM), AMPA (40 μM), and kainate (10 μM) were superfused (2 ml/min.) on the grey matter at intervals of 15-20 minutes until stable responses were attained. The tissue was then exposed for 15 minutes to various concentrations of the formula I compounds before retesting the agonists. The IC50 values were calculated from linear regression of log dose-response curves, each point the mean of at least three observations on separate slices from more than one animal.

[12] = system: AMPA receptor; assay: Antagonism of cortical wedge depolarization induced by AMPA; type: cell-based, rat; conditions: for IC50: AMPA 40 μM, mean ± standard error (n=3)
Protocol: as §2

[13] = system: kainate (KA) receptor; assay: Antagonism of cortical wedge depolarization induced by kainate; type: cell-based, rat; conditions: kainate 10 μM; mean ± standard error (n=3); 15 min
Protocol: as §2

[14] = system: global ischemia; conditions: in vivo; cited from earlier work
[15] = system: CNS ischemia; conditions: cited from earlier work
[16] = [3H]CGS19755 10 nM, mean ± standard error (n=3), 0.96 of compound 2 is a single experiment (footnote d), read-out: IC50 NMDA (receptor binding)
[17] = [3H]AMPA 5 nM, 100 mM KSCN, mean ± standard error (n=3), read-out: IC50 AMPA (receptor binding)

In the case of `C[C@]12N[C@H](Cc3ccccc31)c1ccccc12` [dizocilpine], the “protection in focal cerebral ischemia model in cats” value [1] is given as “provided protection” and the “protection in focal cerebral ischemia model in rats” value [2] is given as “provided protection”.
In the case of `O=C(O)[C@@H]1C[C@H](CP(=O)(O)O)CCN1` [CGS 19755], the “protection in focal cerebral ischemia model in rats” value [2] is listed as “provided protection” and the “analgesic in warm water tail withdrawal procedure” value [3] is listed as “analgesic”.
For `NS(=O)(=O)c1cccc2c1c([N+](=O)[O-])cc1nc(O)c(O)nc12` [NBQX, 2,3-dihydroxy-6-nitro-7-sulfamoylbenzo[f]quinoxaline], the “prevention of global and focal ischemic damage” value [4] is listed as “effective in preventing global and focal ischemic damage”.
In the case of `O=C(O)[C@@H]1C[C@H]2C[C@@H](CP(=O)(O)O)CC[C@H]2CN1` (relative stereo) [LY274614], the “neuroprotection in animal model of Huntington's Disease” value [5] is listed as “neuroprotective”.
For `O=C(O)[C@H]1CN(C/C=C/P(=O)(O)O)CCN1` [D-(-)CPP-ene], the “protection in focal cerebral ischemia model in cats” value [1] is given as “provided protection” and the “anticonvulsant against sound induced seizures” value [6] is given as “anticonvulsant”.
For `NC(CCCP(=O)(O)O)C(=O)O` (racemic) [DL-AP5], the “analgesic in mouse formalin model” value [7] is listed as “analgesic”.
In the case of `O=C(O)[C@@H]1C[C@H]2C[C@@H](c3nn[nH]n3)CC[C@H]2CN1` [Compound 2, (3S, 4aR, 6S, 8aR)-6-(1(2)H-Tetrazole-5-yl)decahydroisoquinoline-3-carboxylic Acid], the IC50 [8, 16] is reported as 0.96 µM, the IC50 ([8]; text summary of Table I, read-out: IC50 for displacement of [3H]CGS19755, summary statement) is reported as < 10 µM and the IC50 [9, 17] is reported as 5.72 ± 0.89 µM. The IC50 ([9]; text summary of Table I, read-out: IC50 for displacement of 3H-AMPA, summary statement) was < 10 µM, the “IC50 KA (receptor binding)” value [10] was 21.0 µM and the IC50 [11] was 4.1 ± 0.3 µM. For the same molecule, the NMDA receptor antagonism ([11]; statement in words, Table II) was “AMPA and NMDA receptor antagonists”, the IC50 [12] was 13.2 ± 2.4 µM and the AMPA receptor antagonism ([12]; statement in words, Table II) was “AMPA and NMDA receptor antagonists”. For the same molecule, the “IC50 KA (cortical wedge depolarization)” value [13] was > 100 µM.
For `CC1=NN=C(c2ccc(N)cc2)c2cc3c(cc2C1)OCO3` [GKYI 52466], the “neuroprotection in rat global ischemia models” value [14] is listed as “effective neuroprotective agent”.
In the case of `C/C(=C\C(N)C(=O)O)CP(=O)(O)O` (stereo not shown) [CGP 37849], the “anticonvulsant against sound induced seizures” value [6] is given as “anticonvulsant”.
For `O=C(O)[C@@H]1C[C@H]2C[C@@H](c3nn[nH]n3)CC[C@H]2CN1` (relative stereo) [Compound 1, (3SR, 4aRS, 6SR, 8aRS)-6-(1(2)H-Tetrazole-5-yl)decahydroisoquinoline-3-carboxylic Acid], the IC50 [8, 16] was 1.56 ± 0.23 µM, the IC50 [9, 17] was 12.8 ± 0.27 µM and the “IC50 KA (receptor binding)” value [10] was 31.84 ± 2.31 µM. For the same molecule, the IC50 [11] was 7.5 ± 0.7 µM, the IC50 [12] was 40.9 ± 5.2 µM and the “IC50 KA (cortical wedge depolarization)” value [13] was > 100 µM.
In the case of `O=C(O)[C@H]1C[C@@H](Cc2nn[nH]n2)CCN1` (relative stereo) [LY233053], the “protection in CNS ischemia model in rabbits” value [15] is given as “provided protection”.
